Experimental data from ChEMBL document CHEMBL4028904, “Discovery of a Novel Series of Tankyrase Inhibitors by a Hybridization Approach” (J Med Chem, 2017).

Experiments:
[1] = target: T1, Poly [ADP-ribose] polymerase tankyrase-2 (Homo sapiens, UniProt Q9H2K2); experiment: Inhibition of TNKS2 (unknown origin) expressed in HEK293 cells assessed as inhibition of Wnt3a-induced Wnt/beta-catenin signaling after 24 hrs by luciferase reporter gene assay; type: cell-based
T1 sequence (Q9H2K2 whole entry): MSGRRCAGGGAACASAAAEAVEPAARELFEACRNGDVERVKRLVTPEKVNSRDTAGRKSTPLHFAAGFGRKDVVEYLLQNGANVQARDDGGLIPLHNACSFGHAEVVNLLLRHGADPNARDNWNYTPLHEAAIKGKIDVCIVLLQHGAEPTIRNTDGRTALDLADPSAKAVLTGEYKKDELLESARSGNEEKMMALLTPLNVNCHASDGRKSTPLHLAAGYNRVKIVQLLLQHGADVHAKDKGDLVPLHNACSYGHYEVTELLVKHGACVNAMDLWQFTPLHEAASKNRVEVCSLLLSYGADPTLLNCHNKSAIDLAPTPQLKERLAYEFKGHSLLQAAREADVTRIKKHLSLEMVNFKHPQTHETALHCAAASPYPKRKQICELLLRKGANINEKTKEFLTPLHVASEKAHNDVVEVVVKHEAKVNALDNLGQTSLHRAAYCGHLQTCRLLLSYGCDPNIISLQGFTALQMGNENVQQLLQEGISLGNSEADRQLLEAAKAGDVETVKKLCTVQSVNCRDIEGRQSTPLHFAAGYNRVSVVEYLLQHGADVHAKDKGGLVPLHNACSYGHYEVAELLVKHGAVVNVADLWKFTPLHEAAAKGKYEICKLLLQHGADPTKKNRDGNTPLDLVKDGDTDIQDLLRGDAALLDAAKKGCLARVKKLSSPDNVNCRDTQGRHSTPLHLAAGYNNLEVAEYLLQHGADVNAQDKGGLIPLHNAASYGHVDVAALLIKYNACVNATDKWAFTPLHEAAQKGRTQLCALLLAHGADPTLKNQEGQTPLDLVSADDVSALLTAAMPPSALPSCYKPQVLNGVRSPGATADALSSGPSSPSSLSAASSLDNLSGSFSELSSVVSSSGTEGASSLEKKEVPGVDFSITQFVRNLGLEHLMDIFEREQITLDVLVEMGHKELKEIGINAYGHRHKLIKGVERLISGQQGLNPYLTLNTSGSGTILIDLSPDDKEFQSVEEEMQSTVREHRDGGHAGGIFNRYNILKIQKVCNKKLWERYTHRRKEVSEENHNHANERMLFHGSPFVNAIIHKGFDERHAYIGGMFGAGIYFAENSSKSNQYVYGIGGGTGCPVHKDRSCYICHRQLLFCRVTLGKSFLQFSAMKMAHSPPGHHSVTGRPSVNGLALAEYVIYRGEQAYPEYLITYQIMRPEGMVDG

[2] = target: T1, Poly [ADP-ribose] polymerase tankyrase-2; experiment: Inhibition of TNKS2 (unknown origin) transfected in human SW480 cells assessed as inhibition of Wnt3a-induced Wnt/beta-catenin signaling after 48 hrs by ST-luciferase reporter gene assay; type: cell-based
[3] = target: T1, Poly [ADP-ribose] polymerase tankyrase-2; experiment: Inhibition of human TNKS2 (873 to 1162 residues) assessed as reduction in NAD+ consumption by fluorescence assay

SMILES | IC50 [1] | IC50 [2] | IC50 [3]
N#Cc1ccc2c(c1)[nH]c(=O)n2[C@H]1CC[C@H](c2nnc(-c3ccncn3)n2-c2ccccc2Cl)CC1 | 120 nM | 1490 nM | 330 nM
N#Cc1ccc2c(c1)[nH]c(=O)n2-c1ccc(-c2nnc(-c3ccncn3)n2-c2ccccc2Cl)cc1 | > 10000 nM | – | 340 nM
